Assay results reported in PubChem BioAssay AID256 (DTP/NCI, 2004).
Several values for one entry are separate records, joined by “and”; a condition that tells them apart may be missing. Identical values can stand only once. Toxic doses and inconclusive results are not listed.

Test system: CD2F1 mice, L1210 leukemia ip, survival T/C
Assay: NCI In Vivo Anticancer Drug Screen. Data for tumor model L1210 Leukemia (intraperitoneal) in CD2F1 (CDF1) mice
Conditions: higher = longer survival
Method: The antitumor activity of compounds was measured in mice bearing transplantable tumors. Survival or tumor size were measured and the results are expressed as the measurement made in the treated group (T) divided by the measurement made in the vehicle treated control group (C). The tumor model used in this assay is L1210 Leukemia (intraperitoneal) in CD2F1 (CDF1) mice

[1] = endpoint: median survival time, dose: 25.0 mg/kg/injection, schedule: Q01DX005 (ip), vehicle: saline with Tween-80
[2] = endpoint: median survival time, dose: 50.0 mg/kg/injection, schedule: Q01DX005 (ip), vehicle: saline with Tween-80
[3] = endpoint: median survival time, dose: 100.0 mg/kg/injection, schedule: Q01DX005 (ip), vehicle: saline with Tween-80
[4] = endpoint: median survival time, dose: 200.0 mg/kg/injection, schedule: Q01DX005 (ip), vehicle: saline with Tween-80
[5] = endpoint: mean survival time, dose: 200.0 mg/kg/injection, schedule: Q01DX009 (ip), vehicle: saline with Tween-80
[6] = endpoint: mean survival time, dose: 400.0 mg/kg/injection, schedule: Q01DX009 (ip), vehicle: saline with Tween-80
[7] = endpoint: mean survival time, dose: 100.0 mg/kg/injection, schedule: Q04DX003 (ip), vehicle: saline with Tween-80
[8] = endpoint: mean survival time, dose: 200.0 mg/kg/injection, schedule: Q04DX003 (ip), vehicle: saline with Tween-80
[9] = endpoint: mean survival time, dose: 100.0 mg/kg/injection, schedule: Q01DX009 (ip), vehicle: saline with Tween-80
[10] = endpoint: mean survival time, dose: 400.0 mg/kg/injection, schedule: Q04DX003 (ip), vehicle: saline with Tween-80
[11] = endpoint: mean survival time, dose: 100.0 mg/kg/injection, schedule: Q01DX001 (ip), vehicle: saline
[12] = endpoint: mean survival time, dose: 200.0 mg/kg/injection, schedule: Q01DX001 (ip), vehicle: saline
[13] = endpoint: mean survival time, dose: 400.0 mg/kg/injection, schedule: Q01DX001 (ip), vehicle: saline
[14] = endpoint: mean survival time, dose: 50.0 mg/kg/injection, schedule: Q01DX001 (ip), vehicle: saline
[15] = endpoint: mean survival time, dose: 100.0 mg/kg/injection, schedule: Q04DX003 (ip), vehicle: saline
[16] = endpoint: mean survival time, dose: 200.0 mg/kg/injection, schedule: Q04DX003 (ip), vehicle: saline
[17] = endpoint: mean survival time, dose: 400.0 mg/kg/injection, schedule: Q04DX003 (ip), vehicle: saline

SMILES: COc1ccc(Cc2ccc(OC)c(OC)c2)cc1OC
- T/C [1]: 96 % of control
- T/C (endpoint: median survival time, dose: 25.0 mg/kg/injection, schedule: Q04DX003 (ip), vehicle: saline): 100 % of control
- T/C [2]: 98 % of control
- T/C (endpoint: median survival time, dose: 50.0 mg/kg/injection, schedule: Q04DX003 (ip), vehicle: saline): 100 % of control
- T/C [3]: 98 % of control
- T/C (endpoint: median survival time, dose: 100.0 mg/kg/injection, schedule: Q04DX003 (ip), vehicle: saline): 100 % of control
- T/C [4]: 97 % of control
- T/C (endpoint: median survival time, dose: 200.0 mg/kg/injection, schedule: Q04DX003 (ip), vehicle: saline): 106 % of control
- T/C (endpoint: median survival time, dose: 400.0 mg/kg/injection, schedule: Q01DX005 (ip), vehicle: saline with Tween-80): 95 % of control
- T/C (endpoint: median survival time, dose: 400.0 mg/kg/injection, schedule: Q04DX003 (ip), vehicle: saline): 100 % of control

SMILES: C/C=C\C1OC1(C)c1cc(=O)c2c(C)cc3c(c2o1)C(=O)c1c(O)c(C2CC(C)(N(C)C)C(OC(C)=O)C(C)O2)cc(C2CC(N(C)C)C(O)C(C)O2)c1C3=O (stereo unspecified)
- T/C (endpoint: mean survival time, dose: 0.35 mg/kg/injection, schedule: Q04DX003 (ip), vehicle: saline with Tween-80): 102 % of control
- T/C (endpoint: median survival time, dose: 0.22 mg/kg/injection, schedule: Q01DX005 (ip), vehicle: saline + alcohol): 124 % of control
- T/C (endpoint: median survival time, dose: 0.25 mg/kg/injection, schedule: Q01DX005 (ip), vehicle: saline + alcohol): 120 % of control
- T/C (endpoint: median survival time, dose: 0.36 mg/kg/injection, schedule: Q01DX005 (ip), vehicle: saline + alcohol): 120 % of control
- T/C (endpoint: median survival time, dose: 1.0 mg/kg/injection, schedule: Q01DX005 (ip), vehicle: saline + alcohol): 120 % of control
- T/C (endpoint: median survival time, dose: 2.78 mg/kg/injection, schedule: Q01DX005 (ip), vehicle: saline + alcohol): 172 % of control

SMILES: COc1cc2ccc3c4cc5c(cc4c[n+](C)c3c2cc1OC)OCO5
- T/C (endpoint: mean survival time, dose: 10.0 mg/kg/injection, schedule: Q01DX009 (ip), vehicle: Klucel (hydroxypropylcellulose) (HPC)): 119 % of control
- T/C (endpoint: mean survival time, dose: 20.0 mg/kg/injection, schedule: Q01DX009 (ip), vehicle: Klucel (hydroxypropylcellulose) (HPC)): 119 % of control
- T/C (endpoint: mean survival time, dose: 40.0 mg/kg/injection, schedule: Q01DX009 (ip), vehicle: Klucel (hydroxypropylcellulose) (HPC)): 121 % of control
- T/C (endpoint: mean survival time, dose: 80.0 mg/kg/injection, schedule: Q01DX009 (ip), vehicle: Klucel (hydroxypropylcellulose) (HPC)): 115 % of control
- T/C (endpoint: mean survival time, dose: 160.0 mg/kg/injection, schedule: Q01DX009 (ip), vehicle: Klucel (hydroxypropylcellulose) (HPC)): 97 % of control

SMILES: O=C(CCBr)NCNC(=O)CCBr
- T/C [5]: 152 % of control
- T/C [6]: 101 % of control

SMILES: O=C(Oc1ccc(OC(=O)c2ccccc2)c([N+](=O)[O-])c1)c1ccccc1
- T/C (endpoint: mean survival time, dose: 75.0 mg/kg/injection, schedule: Q01DX001 (ip), vehicle: saline): 89 % of control
- T/C (endpoint: mean survival time, dose: 150.0 mg/kg/injection, schedule: Q01DX001 (ip), vehicle: saline): 98 % of control
- T/C (endpoint: mean survival time, dose: 300.0 mg/kg/injection, schedule: Q01DX001 (ip), vehicle: saline): 98 % of control

SMILES: COc1cc(C(=O)C=C(C(F)(F)F)C(F)(F)F)cc(OC)c1OC
- T/C [7]: 101 % of control
- T/C [8]: 98 % of control

SMILES: CCOC(=O)Nc1cc(NC(=O)OCC)cc([N+](=O)[O-])c1
- T/C [9]: 98 % of control
- T/C [5]: 98 % of control
- T/C [6]: 106 % of control

SMILES: Cc1ccc(S(=O)(=O)N2CCC(=O)c3ccc(Cl)cc32)cc1
- T/C (endpoint: mean survival time, dose: 100.0 mg/kg/injection, schedule: Q01DX009 (ip), vehicle: Klucel (hydroxypropylcellulose) (HPC)): 101 % of control
- T/C (endpoint: mean survival time, dose: 200.0 mg/kg/injection, schedule: Q01DX009 (ip), vehicle: Klucel (hydroxypropylcellulose) (HPC)): 93 % of control
- T/C (endpoint: mean survival time, dose: 400.0 mg/kg/injection, schedule: Q01DX009 (ip), vehicle: Klucel (hydroxypropylcellulose) (HPC)): 96 % of control

SMILES: CCCCC/C(C)=C(\C)c1cc(OC)cc(OC)c1
- T/C [9]: 103 % of control
- T/C [5]: 106 % of control
- T/C [6]: 91 % of control

SMILES: Cc1c(-c2ccc3c(c2)OCO3)no[n+]1[O-]
- T/C [7]: 91 % of control
- T/C [8]: 98 % of control
- T/C [10]: 88 % of control

SMILES: Cc1cccc(N/N=C2\CCSc3ccccc32)c1
- T/C (endpoint: mean survival time, dose: 100.0 mg/kg/injection, schedule: Q01DX001 (ip), vehicle: saline with Tween-80): 100 % of control
- T/C (endpoint: mean survival time, dose: 200.0 mg/kg/injection, schedule: Q01DX001 (ip), vehicle: saline with Tween-80): 100 % of control
- T/C (endpoint: mean survival time, dose: 400.0 mg/kg/injection, schedule: Q01DX001 (ip), vehicle: saline with Tween-80): 103 % of control

SMILES: CC(=O)OCC1OC(c2cccc3c2c2ccccc2n3S(=O)(=O)c2ccccc2)C(O)C1O (stereo unspecified)
- T/C (endpoint: median survival time, dose: 12.5 mg/kg/injection, schedule: Q01DX005 (ip), vehicle: saline with Tween-80): 110 % of control
- T/C [1]: 107 % of control
- T/C [2]: 96 % of control
- T/C [3]: 98 % of control
- T/C [4]: 98 % of control

SMILES: O=C(O)c1ccccc1C(Br)C(Br)c1ccccc1 (stereo unspecified)
- T/C [7]: 101 % of control
- T/C [8]: 98 % of control
- T/C [10]: 106 % of control

SMILES: Cn1c2c(c3ccccc31)CCCC2=O
- T/C [11]: 106 % of control
- T/C [12]: 97 % of control
- T/C [13]: 93 % of control

SMILES: CC1CCCC(C)N1C1=NCCO1 (stereo unspecified)
- T/C (endpoint: mean survival time, dose: 5.0 mg/kg/injection, schedule: Q04DX003 (ip), vehicle: saline): 102 % of control
- T/C (endpoint: mean survival time, dose: 10.0 mg/kg/injection, schedule: Q04DX003 (ip), vehicle: saline): 97 % of control
- T/C (endpoint: mean survival time, dose: 20.0 mg/kg/injection, schedule: Q04DX003 (ip), vehicle: saline): 94 % of control

SMILES: CC(=O)c1ccc(CCCCCCCC(=O)O)o1
- T/C (endpoint: mean survival time, dose: 50.0 mg/kg/injection, schedule: Q01DX001 (ip), vehicle: Klucel (hydroxypropylcellulose) (HPC)): 97 % of control
- T/C (endpoint: mean survival time, dose: 100.0 mg/kg/injection, schedule: Q01DX001 (ip), vehicle: Klucel (hydroxypropylcellulose) (HPC)): 101 % of control
- T/C (endpoint: mean survival time, dose: 200.0 mg/kg/injection, schedule: Q01DX001 (ip), vehicle: Klucel (hydroxypropylcellulose) (HPC)): 94 % of control

SMILES: Nc1ccc(OCCCc2ccccc2)c([N+](=O)[O-])c1
- T/C (endpoint: mean survival time, dose: 100.0 mg/kg/injection, schedule: Q01DX001 (ip), vehicle: other): 92 % of control and 100 % of control
- T/C [9]: 96 % of control and 102 % of control
- T/C (endpoint: mean survival time, dose: 100.0 mg/kg/injection, schedule: Q04DX002 (ip), vehicle: other): 98 % of control
- T/C (endpoint: mean survival time, dose: 100.0 mg/kg/injection, schedule: Q04DX003 (ip), vehicle: other): 98 % of control
- T/C (endpoint: mean survival time, dose: 200.0 mg/kg/injection, schedule: Q01DX001 (ip), vehicle: other): 93 % of control and 98 % of control
- T/C [5]: 96 % of control and 106 % of control
- T/C (endpoint: mean survival time, dose: 200.0 mg/kg/injection, schedule: Q04DX002 (ip), vehicle: other): 100 % of control
- T/C (endpoint: mean survival time, dose: 200.0 mg/kg/injection, schedule: Q04DX003 (ip), vehicle: other): 100 % of control
- T/C [6]: 122 % of control and 93 % of control
- T/C (endpoint: mean survival time, dose: 400.0 mg/kg/injection, schedule: Q04DX002 (ip), vehicle: other): 102 % of control

SMILES: O=C(NC1CCC(NC(=O)N2CC2)CC1)N1CC1 (stereo unspecified)
- T/C (endpoint: mean survival time, dose: 6.75 mg/kg/injection, schedule: Q01DX001 (ip), vehicle: carboxymethylcellulose (CMC)): 164 % of control
- T/C (endpoint: mean survival time, dose: 10.0 mg/kg/injection, schedule: Q01DX001 (ip), vehicle: carboxymethylcellulose (CMC)): 185 % of control
- T/C (endpoint: mean survival time, dose: 15.0 mg/kg/injection, schedule: Q01DX001 (ip), vehicle: carboxymethylcellulose (CMC)): 102 % of control

SMILES: CCC(C)[N+](=O)[O-] (stereo unspecified)
- T/C [14]: 94 % of control
- T/C [11]: 98 % of control
- T/C [12]: 102 % of control

SMILES: CCC(C)(CC)OC(=O)c1ccc([N+](=O)[O-])cc1
- T/C [11]: 100 % of control
- T/C [12]: 98 % of control
- T/C [13]: 98 % of control

SMILES: O=S(=O)(Cl)c1cccc2cc3ccccc3cc12
- T/C [15]: 109 % of control
- T/C [16]: 97 % of control
- T/C [17]: 103 % of control

SMILES: CCCNC(=O)Oc1c(C(C)C)ccc(C)c1Cl
- T/C [15]: 98 % of control
- T/C [16]: 101 % of control
- T/C [17]: 95 % of control

SMILES: C[N+]12CC3C(O)CC1CCC32 (stereo unspecified)
- T/C (endpoint: mean survival time, dose: 12.0 mg/kg/injection, schedule: Q01DX001 (ip), vehicle: saline): 97 % of control
- T/C (endpoint: mean survival time, dose: 12.0 mg/kg/injection, schedule: Q01DX009 (ip), vehicle: saline): 96 % of control
- T/C (endpoint: mean survival time, dose: 25.0 mg/kg/injection, schedule: Q01DX001 (ip), vehicle: saline): 96 % of control
- T/C (endpoint: mean survival time, dose: 25.0 mg/kg/injection, schedule: Q01DX009 (ip), vehicle: saline): 98 % of control
- T/C [14]: 97 % of control
- T/C (endpoint: mean survival time, dose: 50.0 mg/kg/injection, schedule: Q01DX009 (ip), vehicle: saline): 93 % of control
